Measured values as given in ChEMBL document CHEMBL1201862, “PubChem BioAssay data set” (2004).
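These data come from cells grown in 96-well plates and exposed to compound for 48 hours at five concentrations. GI50 = concentration required for 50% inhibition of growth.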 The source made the active and inactive calls. Rule as the data show it: active = GI50 up to about 1.1 µM and inactive = higher.

Legend:
Assay in all cases: NCI anticancer screen, dose series, 48 h
EKVX = test system: EKVX
OVCAR-8 = test system: OVCAR-8
786-0 = test system: 786-0
SNB-19 = test system: SNB-19
SNB-75 = test system: SNB-75
IGROV-1 = test system: IGROV-1
SK-MEL-28 = test system: SK-MEL-28
UO-31 = test system: UO-31
RXF 393 = test system: RXF 393
HCT-116 = test system: HCT-116
CCRF-CEM = test system: CCRF-CEM
UACC-62 = test system: UACC-62
MOLT-4 = test system: MOLT-4
NCI-H23 = test system: NCI-H23
HOP-62 = test system: HOP-62
ACHN = test system: ACHN
NCI-H460 = test system: NCI-H460

Measured: GI50

Cc1[nH]nc2c1C(=O)C=C(N(CCO)c1ccccc1)C2=O
inactive: EKVX > 100 µM | OVCAR-8 > 100 µM | 786-0 > 100 µM | SNB-19 > 100 µM | SNB-75 88.9 µM | IGROV-1 > 100 µM | SK-MEL-28 > 100 µM | UO-31 > 100 µM | RXF 393 > 100 µM | HCT-116 > 100 µM | CCRF-CEM > 100 µM | UACC-62 > 100 µM | MOLT-4 > 100 µM | NCI-H23 > 100 µM

CCN(CC)CCNC(=O)c1cccc2nc3ccccc3nc12
inactive: EKVX 23.4 µM | OVCAR-8 14 µM | 786-0 27 µM | HOP-62 13.2 µM | SNB-19 21.2 µM | SNB-75 > 36.8 µM | IGROV-1 38.3 µM | SK-MEL-28 17.5 µM | UO-31 > 24.8 µM | ACHN 5.06 µM | RXF 393 12.4 µM | HCT-116 4.16 µM | UACC-62 18.9 µM | MOLT-4 4.91 µM | NCI-H23 13.7 µM

CC(=O)C1=CSC2[C@H](NC(=O)Cc3ccccc3)C(=O)N2C1C(=O)OC(c1ccccc1)c1ccccc1 (some centres not stated)
inactive: EKVX > 100 µM | OVCAR-8 > 100 µM | 786-0 60.5 µM | HOP-62 58.6 µM | SNB-19 > 100 µM | SNB-75 56.2 µM | IGROV-1 > 100 µM | SK-MEL-28 > 100 µM | UO-31 > 100 µM | HCT-116 > 100 µM | CCRF-CEM 23.1 µM | UACC-62 30.1 µM | MOLT-4 35.8 µM | NCI-H23 51.6 µM

Sc1nnc(COc2ccc(Cl)cc2)[nH]1
inactive: OVCAR-8 > 100 µM | 786-0 > 100 µM | HOP-62 > 100 µM | SNB-19 > 100 µM | SNB-75 > 100 µM | IGROV-1 > 100 µM | SK-MEL-28 > 100 µM | UO-31 > 100 µM | ACHN > 100 µM | RXF 393 > 100 µM | HCT-116 > 100 µM | CCRF-CEM > 100 µM | UACC-62 > 100 µM | MOLT-4 > 100 µM | NCI-H460 > 100 µM | NCI-H23 > 100 µM

O=C(CCc1n[nH]c(=S)o1)Nc1ccccc1C(F)(F)F
inactive: EKVX > 100 µM | OVCAR-8 > 100 µM | 786-0 > 100 µM | HOP-62 > 100 µM | SNB-19 > 100 µM | SNB-75 > 100 µM | IGROV-1 > 100 µM | SK-MEL-28 > 100 µM | UO-31 > 100 µM | ACHN > 100 µM | HCT-116 > 10 µM | CCRF-CEM > 100 µM | UACC-62 > 100 µM | MOLT-4 > 100 µM | NCI-H460 > 100 µM | NCI-H23 > 100 µM

O=c1c2cccc3cccc(c4n1CCCN=4)c32
inactive: EKVX > 100 µM | OVCAR-8 > 100 µM | 786-0 > 100 µM | HOP-62 > 100 µM | SNB-75 > 100 µM | IGROV-1 > 100 µM | SK-MEL-28 > 100 µM | UO-31 80.4 µM | ACHN > 100 µM | RXF 393 > 100 µM | HCT-116 31 µM | CCRF-CEM 41.6 µM | UACC-62 > 100 µM | MOLT-4 35.7 µM | NCI-H460 > 100 µM | NCI-H23 > 100 µM

COC(=O)c1cc(OC(C)=O)c2c(OC)ccc(OC)c2c1
inactive: EKVX > 100 µM | OVCAR-8 > 100 µM | 786-0 > 100 µM | SNB-75 39.5 µM | IGROV-1 > 100 µM | SK-MEL-28 > 100 µM | ACHN > 100 µM | RXF 393 > 100 µM | HCT-116 > 100 µM | UACC-62 > 100 µM | MOLT-4 60.8 µM | NCI-H460 > 100 µM | NCI-H23 > 100 µM

C=CCCc1cc(OC)ccc1CN(C)C(C)(C)CO
inactive: EKVX > 100 µM | OVCAR-8 > 100 µM | 786-0 > 100 µM | HOP-62 > 100 µM | SNB-19 > 100 µM | SNB-75 85.7 µM | IGROV-1 > 100 µM | SK-MEL-28 > 100 µM | ACHN > 100 µM | RXF 393 > 100 µM | HCT-116 > 100 µM | CCRF-CEM > 100 µM | UACC-62 > 100 µM | NCI-H460 > 100 µM | NCI-H23 > 100 µM

COC(=O)c1cc(C)c(C)c2c1NC(=O)CNC2=O
inactive: EKVX > 100 µM | OVCAR-8 > 100 µM | 786-0 > 100 µM | HOP-62 > 100 µM | SNB-75 > 100 µM | IGROV-1 > 100 µM | SK-MEL-28 > 100 µM | UO-31 33.5 µM | ACHN > 100 µM | RXF 393 > 100 µM | HCT-116 > 100 µM | CCRF-CEM > 100 µM | UACC-62 > 100 µM | MOLT-4 > 100 µM | NCI-H460 > 100 µM | NCI-H23 > 100 µM

CCOC(=O)NC(=O)c1cn(CCN2CCN(C(=O)CCCCCCCCCCNc3ncnc4c3ncn4C3OC(CO)C(O)C3O)CC2)c(=O)[nH]c1=O (configuration not stated)
inactive: OVCAR-8 > 100 µM | 786-0 > 100 µM | HOP-62 > 100 µM | SNB-19 > 100 µM | SNB-75 > 100 µM | IGROV-1 > 100 µM | SK-MEL-28 > 100 µM | UO-31 > 100 µM | ACHN > 100 µM | HCT-116 > 100 µM | CCRF-CEM > 100 µM | UACC-62 > 100 µM | MOLT-4 > 100 µM | NCI-H460 > 100 µM | NCI-H23 > 100 µM

CC1OC(=O)N(CCCC=C2SCCCS2)C1=O (configuration not stated)
inactive: EKVX > 100 µM | OVCAR-8 > 100 µM | 786-0 > 100 µM | SNB-19 > 100 µM | SNB-75 > 100 µM | IGROV-1 > 100 µM | SK-MEL-28 > 100 µM | UO-31 > 100 µM | ACHN > 100 µM | RXF 393 > 100 µM | HCT-116 > 100 µM | CCRF-CEM > 100 µM | UACC-62 > 100 µM | MOLT-4 > 100 µM | NCI-H460 > 100 µM | NCI-H23 > 100 µM

CC(Oc1ccc(OCC2CCCCC2)cc1)C(=O)NCCO (configuration not stated)
inactive: OVCAR-8 > 100 µM | 786-0 > 100 µM | SNB-19 > 100 µM | SNB-75 > 100 µM | IGROV-1 > 100 µM | SK-MEL-28 > 100 µM | UO-31 56.4 µM | ACHN > 100 µM | RXF 393 > 100 µM | HCT-116 > 100 µM | CCRF-CEM > 100 µM | UACC-62 > 100 µM | MOLT-4 > 100 µM | NCI-H460 52.1 µM | NCI-H23 15.7 µM

Cn1c2c(c3ccccc31)CCN(CCCN1CCN(c3cccc(Cl)c3)CC1)C2=O
inactive: EKVX 41.7 µM | OVCAR-8 23.7 µM | 786-0 17.1 µM | HOP-62 18.7 µM | SNB-19 27.4 µM | IGROV-1 26.4 µM | SK-MEL-28 17.4 µM | UO-31 11 µM | ACHN 10.9 µM | RXF 393 14.9 µM | HCT-116 12.3 µM | CCRF-CEM 31.5 µM | UACC-62 17.4 µM | MOLT-4 11.6 µM | NCI-H460 5.81 µM | NCI-H23 19.5 µM

CC(C)C(Sc1nc(-c2ccccc2)c(-c2ccccc2)[nH]1)C(=O)NN (configuration not stated)
inactive: OVCAR-8 > 100 µM | 786-0 > 100 µM | HOP-62 > 100 µM | SNB-19 > 100 µM | SNB-75 > 100 µM | IGROV-1 > 100 µM | SK-MEL-28 > 100 µM | UO-31 > 100 µM | ACHN > 100 µM | RXF 393 31.6 µM | HCT-116 > 100 µM | CCRF-CEM 31.6 µM | MOLT-4 49.7 µM | NCI-H460 97.5 µM | NCI-H23 > 100 µM

COc1cc(C(=O)O)cc2c1[nH]c1ccccc12 [MUKOEIC ACID]
inactive: OVCAR-8 > 25 µM | 786-0 > 25 µM | HOP-62 > 25 µM | SNB-19 > 25 µM | IGROV-1 > 25 µM | SK-MEL-28 > 25 µM | UO-31 > 25 µM | ACHN > 25 µM | HCT-116 > 25 µM | CCRF-CEM > 25 µM | UACC-62 > 25 µM | MOLT-4 > 25 µM | NCI-H460 > 25 µM

CCOC(=O)Cn1c(=O)n(C)c(=O)c2c1ncn2Cc1ccccc1
inactive: EKVX > 100 µM | OVCAR-8 > 100 µM | 786-0 > 100 µM | HOP-62 > 100 µM | SNB-19 > 100 µM | SNB-75 > 100 µM | IGROV-1 > 100 µM | SK-MEL-28 > 100 µM | UO-31 > 100 µM | ACHN > 100 µM | HCT-116 > 100 µM | CCRF-CEM > 100 µM | UACC-62 > 100 µM | MOLT-4 > 100 µM | NCI-H460 > 100 µM | NCI-H23 > 100 µM

COc1ccc(/C=N\O[Si](C)(C)C(C)(C)C)cc1O[Si](C)(C)C(C)(C)C
inactive: EKVX 21 µM | OVCAR-8 22.8 µM | 786-0 16.7 µM | HOP-62 20.2 µM | SNB-19 18.9 µM | SNB-75 22.3 µM | IGROV-1 18.9 µM | UO-31 14.7 µM | ACHN 18 µM | RXF 393 14.3 µM | HCT-116 15.7 µM | CCRF-CEM 21.6 µM | UACC-62 18.8 µM | MOLT-4 17.4 µM | NCI-H460 20.6 µM | NCI-H23 19.4 µM

S=c1[nH]c2ccc(Br)cc2c(=S)n1-c1ccccc1
inactive: EKVX 37.2 µM | OVCAR-8 30.5 µM | 786-0 24.5 µM | HOP-62 24.4 µM | SNB-19 5.85 µM | SNB-75 34.2 µM | IGROV-1 20.6 µM | SK-MEL-28 9.89 µM | UO-31 16.4 µM | ACHN 20.3 µM | HCT-116 8.75 µM | CCRF-CEM 11.8 µM | UACC-62 10.5 µM | NCI-H460 12.6 µM | NCI-H23 10.7 µM
